# Reference: ChEMBL document CHEMBL6092212, “Discovery of novel substituted (Z)-N'-hydroxy-3-(3-phenylureido)benzimidamide derivatives as multifunctional molecules targeting pathological hallmarks of Alzheimer's disease” (Eur J Med Chem, 2024)
# Calls of active or inactive are those of the source. No cut-off for these calls is given here.
# How the values were obtained:
# Mus musculus [1] = assay: Neuroprotective activity against scopolamine-induced cognitive deficit Swiss albino mouse model assessed as increase in TRKB mRNA level at 1.5 mg/kg, ip measured after 14 days by RT-PCR analysis; format: functional, organism-based; conditions: time 14.0 day
# Mus musculus [2] = assay: Neuroprotective activity against scopolamine-induced cognitive deficit Swiss albino mouse model assessed as increase in BDNF mRNA level at 1.5 mg/kg, ip measured after 14 days by RT-PCR analysis; format: functional, organism-based; conditions: time 14.0 day
# Mus musculus [3] = assay: Reversal of scopolamine-induced cognitive deficit Swiss albino mouse model assessed as increase in time in platform quadrant at 1.5 mg/kg, ip measured after 5 days by Morris water maze test; format: functional, organism-based; conditions: time 5.0 day
# Mus musculus [4] = assay: Protection against scopolamine-associated dementia in Swiss albino mouse model assessed as increase in latency period at 1.5 mg/kg, ip measured after 14 days by Passive avoidance task method; format: functional, organism-based; conditions: time 14.0 day
# Mus musculus [5] = assay: Reversal of scopolamine-induced cognitive deficit Swiss albino mouse model assessed as decrease in escape latency at 1.5 mg/kg, ip measured for 5 days by Morris water maze test; format: functional, organism-based; conditions: time 5.0 day
# [6] = Antioxidant activity assessed as DPPH radical scavenging activity at 20 to 200 uM incubated for 30 mins by absorbance based analysis relative to control; format: functional; conditions: dose 20-200 µM
# PC-12 = assay: Cytotoxicity against rat PC-12 cells upto 20 uM incubated for 24 hrs by MTT assay; format: toxicity, cell-based; conditions: pc-12, 24 h
# HMC3 [7] = assay: Inhibition of mitochondrial impairment in LPS/ATP-induced human HMC3 cells at 12.5 uM incubated for 24 hrs by Rhodamine 123/JC-1 staining based analysis; format: functional, cell-based
# HMC3 [8] = assay: Antiinflammatory activity against LPS/ATP-induced human HMC3 cells assessed as reduction in nuclear translocation of NF-kappaB at 12.5 uM by immunocytochemistry based analysis; format: functional, cell-based
# [9] = Acute toxicity in Swiss albino mouse assessed as animal survival at 2000 mg/kg, po measured 14 days post-administration; format: organism-based; conditions: in vivo, 336 h, time 14 day
# Cholinesterase [10] = molecular target: Cholinesterase (Homo sapiens, UniProt P06276); assay: Inhibition of human BChE using BTCI as substrate preincubated for 30 mins followed by substrate addition measured after 30 mins by Ellman's method
# Cholinesterase (Homo sapiens, UniProt P06276), sequence (P06276 whole entry): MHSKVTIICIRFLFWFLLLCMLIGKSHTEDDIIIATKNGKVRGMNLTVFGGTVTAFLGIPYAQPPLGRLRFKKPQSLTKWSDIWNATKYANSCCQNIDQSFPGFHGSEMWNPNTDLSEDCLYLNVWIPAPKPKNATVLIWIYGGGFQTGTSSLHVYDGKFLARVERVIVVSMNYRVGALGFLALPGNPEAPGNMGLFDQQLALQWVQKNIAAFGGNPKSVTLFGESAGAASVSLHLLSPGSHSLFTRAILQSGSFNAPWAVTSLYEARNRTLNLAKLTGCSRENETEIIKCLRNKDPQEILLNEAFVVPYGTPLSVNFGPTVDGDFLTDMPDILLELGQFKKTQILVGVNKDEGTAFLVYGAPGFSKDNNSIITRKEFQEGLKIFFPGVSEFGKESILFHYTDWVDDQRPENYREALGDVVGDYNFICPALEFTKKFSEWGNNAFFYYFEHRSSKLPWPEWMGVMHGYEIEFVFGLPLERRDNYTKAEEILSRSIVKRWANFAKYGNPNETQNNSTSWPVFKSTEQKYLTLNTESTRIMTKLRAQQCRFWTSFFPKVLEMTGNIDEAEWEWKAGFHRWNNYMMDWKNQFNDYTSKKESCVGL
# HMC3 [11] = assay: Antiinflammatory activity against LPS/ATP-induced human HMC3 cells assessed as reduction in IL-18 level at 12.5 uM by Western blot analysis; format: functional, cell-based
# Mus musculus [12] = assay: Neuroprotective activity against scopolamine-induced cognitive deficit Swiss albino mouse model assessed as increase in PSD95 mRNA level at 10 mg/kg, ip measured after 14 days by RT-PCR analysis; format: functional, organism-based; conditions: time 14.0 day
# Mus musculus [13] = assay: Neuroprotective activity against scopolamine-induced cognitive deficit Swiss albino mouse model assessed as increase in c-FOS mRNA level at 10 mg/kg, ip measured after 14 days by RT-PCR analysis; format: functional, organism-based; conditions: time 14.0 day
# Mus musculus [14] = assay: Neuroprotective activity against scopolamine-induced cognitive deficit Swiss albino mouse model assessed as increase in GAP43 mRNA level at 10 mg/kg, ip measured after 14 days by RT-PCR analysis; format: functional, organism-based; conditions: time 14.0 day
# Mus musculus [15] = assay: Reversal of scopolamine-induced cognitive deficit Swiss albino mouse model assessed as reduction in distance traveled to reach platform at 10 mg/kg, ip measured after 5 days by Morris water maze test; format: functional, organism-based; conditions: time 5.0 day
# HMC3 [16] = assay: Antiinflammatory activity against LPS/ATP-induced human HMC3 cells assessed as reduction in NLRP3 level at 12.5 uM by Western blot analysis; format: functional, cell-based
# [17] = Antioxidant activity assessed as inhibition of DPPH radical scavenging activity incubated for 30 mins by absorbance based analysis; format: functional
# HMC3 [18] = assay: Inhibition of LPS/ATP-induced cytotoxicity against human HMC3 cells at 12.5 uM incubated for 24 hrs by MTT assay; format: functional, cell-based
# Mus musculus [19] = assay: Neuroprotective activity against scopolamine-induced cognitive deficit Swiss albino mouse model assessed as increase in TRKB mRNA level at 10 mg/kg, ip measured after 14 days by RT-PCR analysis; format: functional, organism-based; conditions: time 14.0 day
# [20] = Induction of NO release upto 100 uM incubated for 5 to 10 mins by Griess assay; format: functional; conditions: time 5-10 min
# Mus musculus [21] = assay: Reversal of scopolamine-induced cognitive deficit Swiss albino mouse model assessed as increase in number of entries in target quadrant at 10 mg/kg, ip measured after 5 days by Morris water maze test; format: functional, organism-based; conditions: time 5.0 day
# Acetylcholinesterase [22] = molecular target: T1, Acetylcholinesterase (Homo sapiens, UniProt P22303); assay: Inhibition of human AChE using ATCI as substrate preincubated for 30 mins followed by substrate addition measured after 30 mins by Ellman's method
# T1 sequence (P22303 whole entry): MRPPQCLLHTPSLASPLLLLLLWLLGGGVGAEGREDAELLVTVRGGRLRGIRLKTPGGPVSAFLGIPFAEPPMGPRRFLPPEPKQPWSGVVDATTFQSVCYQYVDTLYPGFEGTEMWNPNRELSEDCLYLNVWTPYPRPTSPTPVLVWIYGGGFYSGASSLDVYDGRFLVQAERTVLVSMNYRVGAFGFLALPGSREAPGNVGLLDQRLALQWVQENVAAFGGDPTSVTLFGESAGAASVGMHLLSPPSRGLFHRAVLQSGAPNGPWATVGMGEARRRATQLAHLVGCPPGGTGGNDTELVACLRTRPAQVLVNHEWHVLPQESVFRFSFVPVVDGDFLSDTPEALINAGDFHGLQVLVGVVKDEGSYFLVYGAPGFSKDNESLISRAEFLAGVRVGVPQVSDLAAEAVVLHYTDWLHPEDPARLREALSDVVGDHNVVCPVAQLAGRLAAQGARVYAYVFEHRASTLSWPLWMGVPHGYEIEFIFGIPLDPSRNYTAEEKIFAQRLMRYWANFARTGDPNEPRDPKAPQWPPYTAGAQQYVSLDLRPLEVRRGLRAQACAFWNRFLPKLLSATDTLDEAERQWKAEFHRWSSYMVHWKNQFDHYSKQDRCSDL
# [23] = Acute toxicity in Swiss albino mouse assessed as signs of tremor at 2000 mg/kg, po measured 14 days post-administration; format: organism-based; conditions: in vivo, 336 h, time 14 day
# HMC3 [24] = assay: Antiinflammatory activity against LPS/ATP-induced human HMC3 cells assessed as reduction in IL-1beta level at 12.5 uM by Western blot analysis; format: functional, cell-based
# HMC3 [25] = assay: Antiinflammatory activity against LPS/ATP-induced human HMC3 cells assessed as reduction in NF-kappaB level at 12.5 uM by immunocytochemistry based analysis; format: functional, cell-based
# HMC3 [26] = assay: Antiinflammatory activity against LPS/ATP-induced human HMC3 cells assessed as decrease in Iba-1 level at 12.5 uM by Western blot analysis; format: functional, cell-based
# [27] = Permeability of compound in PBS at pH 7.4 at 500 uM by PAMPA; format: ADME; conditions: read-out: permeability
# Mus musculus [28] = assay: Neuroprotective activity against scopolamine-induced cognitive deficit Swiss albino mouse model assessed as increase in Nr4a2 mRNA level at 10 mg/kg, ip measured after 14 days by RT-PCR analysis; format: functional, organism-based; conditions: time 14.0 day
# HMC3 [29] = assay: Antiinflammatory activity against LPS/ATP-induced human HMC3 cells assessed as increase in Nrf2 level at 12.5 uM by Western blot analysis; format: functional, cell-based
# [30] = Acute toxicity in Swiss albino mouse assessed as signs of convulsion at 2000 mg/kg, po measured 14 days post-administration; format: organism-based; conditions: in vivo, 336 h, time 14 day
# HMC3 [31] = assay: Antiinflammatory activity against LPS/ATP-induced human HMC3 cells assessed as reduction in caspase-1 level at 12.5 uM by Western blot analysis; format: functional, cell-based
# Mus musculus [32] = assay: Neuroprotective activity against scopolamine-induced cognitive deficit Swiss albino mouse model assessed as increase in BDNF mRNA level at 10 mg/kg, ip measured after 14 days by RT-PCR analysis; format: functional, organism-based; conditions: time 14.0 day
# HMC3 [33] = assay: Antiinflammatory activity against LPS/ATP-induced human HMC3 cells assessed as reduction in NLRP3 level at 12.5 uM by immunocytochemistry based analysis; format: functional, cell-based
# Mus musculus [34] = assay: Reversal of scopolamine-induced cognitive deficit Swiss albino mouse model assessed as increase in time in platform quadrant at 10 mg/kg, ip measured after 5 days by Morris water maze test; format: functional, organism-based; conditions: time 5.0 day
# [35] = molecular target: Cholinesterase (Equus caballus) (UniProt P81908); assay: Competitive inhibition of equine BChE using BTCI as substrate at 1 to 10 uM preincubated for 30 mins followed by substrate addition by Ellman's method; conditions: dose 1-10 µM
# Cholinesterase (Equus caballus), sequence (P81908 whole entry): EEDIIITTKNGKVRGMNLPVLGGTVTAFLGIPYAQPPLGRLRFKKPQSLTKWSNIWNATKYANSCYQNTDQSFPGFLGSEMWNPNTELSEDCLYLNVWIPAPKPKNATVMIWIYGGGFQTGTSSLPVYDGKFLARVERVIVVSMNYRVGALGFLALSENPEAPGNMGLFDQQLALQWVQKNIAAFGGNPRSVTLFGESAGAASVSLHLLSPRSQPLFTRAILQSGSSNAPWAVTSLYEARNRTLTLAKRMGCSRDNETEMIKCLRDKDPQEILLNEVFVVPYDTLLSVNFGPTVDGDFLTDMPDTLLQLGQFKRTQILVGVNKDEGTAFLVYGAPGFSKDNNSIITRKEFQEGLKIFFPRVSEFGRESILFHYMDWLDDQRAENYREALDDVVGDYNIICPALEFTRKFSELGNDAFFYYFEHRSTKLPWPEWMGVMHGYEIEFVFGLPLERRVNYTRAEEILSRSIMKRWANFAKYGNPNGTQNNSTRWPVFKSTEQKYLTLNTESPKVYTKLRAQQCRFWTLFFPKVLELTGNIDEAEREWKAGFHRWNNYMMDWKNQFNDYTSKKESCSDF
# Cholinesterase [36] = molecular target: Cholinesterase (Equus caballus, UniProt P81908); assay: Inhibition of equine BChE using BTCI as substrate preincubated for 30 mins followed by substrate addition measured after 30 mins by Ellman's method
# Cholinesterase (Equus caballus, UniProt P81908), sequence (P81908 whole entry): as above
# [37] = molecular target: Amyloid-beta precursor protein (Homo sapiens) (UniProt P05067); assay: Inhibition of self-mediated Amyloid beta (1 to 42)(unknown origin) aggregation at 3.125 uM incubated for 3 days by ThT assay; conditions: time 3.0 day
# Amyloid-beta precursor protein (Homo sapiens), sequence (P05067 whole entry): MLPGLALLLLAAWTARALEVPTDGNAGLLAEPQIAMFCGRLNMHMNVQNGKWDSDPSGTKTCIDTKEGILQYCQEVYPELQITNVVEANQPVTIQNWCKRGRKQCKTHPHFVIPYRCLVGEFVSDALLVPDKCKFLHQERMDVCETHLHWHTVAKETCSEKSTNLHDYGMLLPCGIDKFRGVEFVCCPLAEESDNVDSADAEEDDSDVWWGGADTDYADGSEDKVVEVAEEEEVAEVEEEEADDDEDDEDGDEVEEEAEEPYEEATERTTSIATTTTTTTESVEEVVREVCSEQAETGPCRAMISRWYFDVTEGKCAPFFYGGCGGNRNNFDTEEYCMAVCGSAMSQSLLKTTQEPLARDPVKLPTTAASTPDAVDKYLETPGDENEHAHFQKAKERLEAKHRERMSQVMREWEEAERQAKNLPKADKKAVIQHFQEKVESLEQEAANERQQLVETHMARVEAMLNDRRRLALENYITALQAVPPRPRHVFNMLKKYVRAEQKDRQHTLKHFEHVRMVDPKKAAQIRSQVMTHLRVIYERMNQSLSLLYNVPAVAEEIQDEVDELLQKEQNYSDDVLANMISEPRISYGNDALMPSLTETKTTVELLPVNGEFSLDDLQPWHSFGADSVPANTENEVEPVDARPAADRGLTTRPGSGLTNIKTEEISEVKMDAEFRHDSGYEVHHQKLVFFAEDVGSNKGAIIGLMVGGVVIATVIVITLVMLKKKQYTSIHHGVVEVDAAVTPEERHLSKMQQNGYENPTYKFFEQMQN
# [38] = Metal chelating activity assessed as compound-Fe3+ complex formation at 600 uM incubated for 24 hrs by UV spectrophotometry
# Mus musculus [39] = assay: Neuroprotective activity against scopolamine-induced cognitive deficit Swiss albino mouse model assessed as increase in PKA mRNA level at 10 mg/kg, ip measured after 14 days by RT-PCR analysis; format: functional, organism-based; conditions: time 14.0 day
# [40] = Acute toxicity in Swiss albino mouse assessed as signs of diarrhea at 2000 mg/kg, po measured 14 days post-administration; format: organism-based; conditions: in vivo, 336 h, time 14 day
# HMC3 [41] = assay: Inhibition of ROS production in LPS/ATP-induced human HMC3 cells at 12.5 uM incubated for 24 hrs by MitoSOX Red FM staining based analysis; format: functional, cell-based
# Mus musculus [42] = assay: Neuroprotective activity against scopolamine-induced cognitive deficit Swiss albino mouse model assessed as increase in CREB1 mRNA level at 10 mg/kg, ip measured after 14 days by RT-PCR analysis; format: functional, organism-based; conditions: time 14.0 day
# Acetylcholinesterase [43] = molecular target: T1, Acetylcholinesterase; assay: Mixed inhibition of human AChE using ATCI as substrate at 0.1 to 5 uM preincubated for 30 mins followed by substrate addition by Ellman's method; conditions: dose 0.1-5 µM
# HMC3 [44] = assay: Induction of mitochondrial membrane potential stability in LPS/ATP-induced human HMC3 cells at 12.5 uM incubated for 24 hrs by Rhodamine 123/JC-1 staining based analysis; format: functional, cell-based
# [45] = Acute toxicity in Swiss albino mouse assessed as signs of over-weight gain at 2000 mg/kg, po measured 14 days post-administration; format: organism-based; conditions: in vivo, 336 h, time 14 day
# [46] = Acute toxicity in Swiss albino mouse assessed as signs of abnormal behaviour at 2000 mg/kg, po measured 14 days post-administration; format: organism-based; conditions: in vivo, 336 h, time 14 day
# Mus musculus [47] = assay: Reversal of scopolamine-induced cognitive deficit Swiss albino mouse model assessed as decrease in escape latency at 10 mg/kg, ip measured for 5 days by Morris water maze test; format: functional, organism-based; conditions: time 5.0 day
# HMC3 [48] = assay: Antiinflammatory activity against LPS/ATP-induced human HMC3 cells assessed as increase in vimentin level at 12.5 uM by immunocytochemistry based analysis; format: functional, cell-based
# Mus musculus [49] = assay: Protection against scopolamine-associated dementia in Swiss albino mouse model assessed as increase in latency period at 10 mg/kg, ip measured after 14 days by Passive avoidance task method; format: functional, organism-based; conditions: time 14.0 day
# [50] = molecular target: Microtubule-associated protein tau (Homo sapiens) (UniProt P10636); assay: Inhibition of Tau (unknown origin) aggregation at 1.125 uM incubated for 3 days by ThT assay; conditions: time 3.0 day
# Microtubule-associated protein tau (Homo sapiens), sequence (P10636 whole entry): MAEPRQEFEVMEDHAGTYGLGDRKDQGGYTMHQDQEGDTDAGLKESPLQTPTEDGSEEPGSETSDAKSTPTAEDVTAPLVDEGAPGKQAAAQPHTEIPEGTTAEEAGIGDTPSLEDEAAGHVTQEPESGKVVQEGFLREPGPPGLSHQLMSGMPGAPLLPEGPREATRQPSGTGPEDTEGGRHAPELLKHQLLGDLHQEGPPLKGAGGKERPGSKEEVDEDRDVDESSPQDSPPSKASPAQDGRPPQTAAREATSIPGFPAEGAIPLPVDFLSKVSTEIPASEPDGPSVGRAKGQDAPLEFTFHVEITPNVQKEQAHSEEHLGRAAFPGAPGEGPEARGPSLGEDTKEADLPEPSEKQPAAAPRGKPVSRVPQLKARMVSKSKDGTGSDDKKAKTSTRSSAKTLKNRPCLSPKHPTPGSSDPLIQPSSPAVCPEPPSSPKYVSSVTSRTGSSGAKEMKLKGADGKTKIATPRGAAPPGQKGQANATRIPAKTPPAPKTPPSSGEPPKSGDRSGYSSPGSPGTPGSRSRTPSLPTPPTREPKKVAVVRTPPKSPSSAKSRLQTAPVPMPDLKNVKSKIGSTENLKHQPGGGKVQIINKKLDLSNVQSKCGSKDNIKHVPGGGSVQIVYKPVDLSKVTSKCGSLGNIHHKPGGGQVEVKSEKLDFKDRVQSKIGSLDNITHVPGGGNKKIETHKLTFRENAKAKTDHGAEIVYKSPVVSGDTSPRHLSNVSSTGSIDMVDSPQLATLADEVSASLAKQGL
smiles,measurement,setting,value
CCN(C)C(=O)Oc1cccc([C@H](C)N(C)C)c1,Activity,Mus musculus [1],Active
same,Activity,Mus musculus [2],Active
same,Activity,Mus musculus [3],Active
same,Activity,Mus musculus [4],Active
same,Activity,Mus musculus [5],Active
same,Activity,[6],4.73%
N/C(=N\O)c1cccc(NC(=O)Nc2cccc(F)c2)c1,Activity,PC-12,Non-toxic
same,inhibition,HMC3 [7],Active
same,Activity,HMC3 [8],Active
same,Activity,[9],Non-toxic
same,IC50,Cholinesterase [10],5.21 µM
same,Activity,HMC3 [11],Active
same,Activity,Mus musculus [12],Active
same,Activity,Mus musculus [13],Active
same,Activity,Mus musculus [14],Active
same,Activity,Mus musculus [15],Active
same,Activity,HMC3 [16],Active
same,IC50,[17],16.1 µM
same,inhibition,HMC3 [18],Active
same,Activity,Mus musculus [19],Active
same,Activity,[20],inactive
same,Activity,Mus musculus [21],Active
same,IC50,Acetylcholinesterase [22],1.72 µM
same,Activity,[23],Non-toxic
same,Activity,HMC3 [24],Active
same,Activity,HMC3 [25],Active
same,Activity,HMC3 [26],Active
same,Papp at 500 µM,[27],10.7 ×10⁻⁶ cm/s
same,Activity,Mus musculus [28],Active
same,Activity,HMC3 [29],Active
same,Activity,[30],Non-toxic
same,Activity,HMC3 [31],Active
same,Activity,Mus musculus [32],Active
same,Activity,HMC3 [33],Active
same,Activity,Mus musculus [34],Active
same,inhibition,[35],Active
same,IC50,Cholinesterase [36],6.69 µM
same,inhibition,[37],Active
same,Activity,[38],inactive
same,Activity,Mus musculus [39],Active
same,Activity,[40],Non-toxic
same,inhibition,HMC3 [41],Active
same,Activity,Mus musculus [42],Active
same,inhibition,Acetylcholinesterase [43],Active
same,Activity,HMC3 [44],Active
same,Activity,[6],46.1%
same,Activity,[45],Non-toxic
same,Activity,[46],Non-toxic
same,Activity,Mus musculus [47],Active
same,Activity,HMC3 [48],Active
same,Activity,Mus musculus [49],Active
same,inhibition,[50],Active
